How the values were obtained:
[1] = Solubility in water / aqueous solution; settings: as observed during preparation
[2] = single 200-mg oral dose, fasting subjects; cited from earlier work

CC(=O)O.CC(C)Cc1ccc(C(C)C(=O)O)cc1 (centres unmarked) [Ibuprofen ethanoate]
solubility in aqueous medium [1]: insoluble

CC(C)Cc1ccc(C(C)C(=O)O)cc1 (centres unmarked) [Ibuprofen]
time of peak plasma levels after administration [2]: about 1 hr

Reference: patent US20100286079A1, “COMPOSITION COMPRISING COVALENT CONJUGATES OF CHITOSAN AND AN ACIDIC DRUG AND PARENTERAL ADMINISTRATION” (priority 2007, published 2010)
